Values belong to the compound of their own block, whether it stands above or below them.
Experiments:
Type in all cases: physicochemical
[1] = Tap density of mesalamine powder by USP tapped density test <616>; conditions: for Mesalamine Tap Density: mesalamine lot used for the molten mixture, Table 9; for Tapped Density: mesalamine powder lot, Table 8; for TD (measured tapped density): individual mesalamine lot used in combination, Table 10
Method: Unless otherwise specified, tap density is measured by the USP tapped density test <616>.
The individual tap densities of each mesalamine lot were used to calculate a composite tapped density (CTD) based on the amount of each lot. The calculated CTD can be expressed by the following equation: (CDF)i+(CDF)2 + . . . (CDF)n=CTD where CTD=composite tapped density: CDF=contributed density factor=% of total drug used/100×TD; TD=measured tapped density; and n=number of drug lots used.

[2] = Viscosity of molten mixture of mesalamine and hard fat; conditions: molten mixture prepared from the mesalamine lot, Table 11
[3] = as above; conditions: in-process molten mixture of mesalamine and hard fat
Method: Molten mixtures were prepared by the procedure described in Example 1 using mesalamine lots A, B, and E, The molten mixtures had the viscosities reported in Table 9 below.
The in-process molten mixtures of mesalamine and hard fat used in the preparation of the suppositories described above with respect to FIGS. 4 to 6 had the viscosities reported in Table 12 below. Suppositories could not be made from Grades C and D from supplier 2.

Compound: Nc1ccc(O)c(C(=O)O)c1 [Mesalamine Lot A, mesalamine]
Mesalamine Tap Density ([1]; listed as A): 0.81 g/mL
Tapped Density ([1]; listed as A): 0.81 g/mL

Compound: Nc1ccc(O)c(C(=O)O)c1 [Mesalamine Lot B, mesalamine]
Mesalamine Tap Density ([1]; listed as B): 0.72 g/mL
Tapped Density ([1]; listed as B): 0.72 g/mL

Compound: Nc1ccc(O)c(C(=O)O)c1 [Mesalamine Lot C, mesalamine]
TD (measured tapped density) ([1]; listed as C): 0.68 g/mL
Tapped Density ([1]; listed as C): 0.68 g/mL

Compound: Nc1ccc(O)c(C(=O)O)c1 [Mesalamine Lot D, mesalamine]
TD (measured tapped density) ([1]; listed as D): 0.37 g/mL
Tapped Density ([1]; listed as D): 0.39 g/mL

Compound: Nc1ccc(O)c(C(=O)O)c1 [Mesalamine Lot E, mesalamine]
TD (measured tapped density) ([1]; listed as E): 0.68 g/mL
Mesalamine Tap Density ([1]; listed as E): 0.68 g/mL
Tapped Density ([1]; listed as E): 0.68 g/mL

Compound: Nc1ccc(O)c(C(=O)O)c1 [Mesalamine Lot F, mesalamine]
TD (measured tapped density) ([1]; listed as F): 0.46 g/mL
Tapped Density ([1]; listed as F): 0.46 g/mL

Compound: Nc1ccc(O)c(C(=O)O)c1 [Mesalamine Lot G, mesalamine]
TD (measured tapped density) ([1]; listed as G): 0.60 g/mL
Tapped Density ([1]; listed as G): 0.60 g/mL

Compound: Nc1ccc(O)c(C(=O)O)c1 [Mesalamine Lot No. 7, mesalamine]
Tap Density ([1]; mesalamine lot nos. 1-8, Table 11, listed as 7): 0.36 g/mL
Viscosity ([2]; listed as 7): 37830 cps

Compound: Nc1ccc(O)c(C(=O)O)c1 [Mesalamine Lot No. 8, mesalamine]
Tap Density ([1]; mesalamine lot nos. 1-8, Table 11, listed as 8): 0.37 g/mL
Viscosity ([2]; listed as 8): 33735 cps

More lines, now with the values ahead:

Dispersion Viscosity ([3]; Drug Load 33% w/w): 694 Cps
Dispersion Viscosity ([3]; Drug Load 37% w/w): 1131 Cps
Dispersion Viscosity ([3]; Drug Load 42% w/w): 2512 Cps
Compound: Nc1ccc(O)c(C(=O)O)c1 [Supplier 1, mesalamine]

Dispersion Viscosity ([3]; Drug Load 33% w/w): 595 Cps
Dispersion Viscosity ([3]; Drug Load 37% w/w): 1084 Cps
Dispersion Viscosity ([3]; Drug Load 42% w/w): 2553 Cps
Compound: Nc1ccc(O)c(C(=O)O)c1 [Supplier 2, grade A, mesalamine]

Dispersion Viscosity ([3]; Drug Load 33% w/w): 515 Cps
Dispersion Viscosity ([3]; Drug Load 37% w/w): 845 Cps
Dispersion Viscosity ([3]; Drug Load 42% w/w): 1911 Cps
Compound: Nc1ccc(O)c(C(=O)O)c1 [Supplier 2, grade B, mesalamine]

Dispersion Viscosity ([3]; Drug Load 33% w/w): Too Viscous
Tap Density ([1]; mesalamine by source, Table 12): 0.00058 g/mL
Compound: Nc1ccc(O)c(C(=O)O)c1 [Supplier 2, grade C, mesalamine]

Dispersion Viscosity ([3]; Drug Load 33% w/w): Poor
Compound: Nc1ccc(O)c(C(=O)O)c1 [Supplier 2, grade D, mesalamine]

From patent publication US9884018B2, “Mesalamine suppository” (Aptalis Pharma Canada Inc., priority 2007, dated 2018)
